Data on 16 compounds can be found in article PMC6100259, “Insights into Structure-Activity Relationships of 3-Arylhydrazonoindolin-2-One Derivatives for Their Multitarget Activity on β-Amyloid Aggregation and Neurotoxicity” (Molecules : A Journal of Synthetic Chemistry and Natural …, 2018).

The structures appear in SMILES notation. Read-outs that look alike come from different tables or passages of the source.

A short description of data set [1]: Lipophilicity by RP-HPLC (log k'w). Format: physicochemical. To be noted: RP-HPLC C18, MeOH/10 mM ammonium formate buffer pH 4.5, extrapolated to 100% aqueous mobile phase, 25 °C. On the procedure:
To place on a more quantitative basis the above SAR trends, the lipophilicity of a number of isatin arylhydrazone derivatives was measured by an RP-HPLC method. The polycratic capacity factors (log k’w) were determined (details in the Experimental Section). Lipophilicity descriptors (i.e., 1-octanol–water partition coefficients) were also calculated (CLOGPs) using two computational tools (Bio-Loom software, v. 1.7 and ACDLabs software, release 10.0). The ACDLabs software was used also for calculating descriptors of polarizability and size, namely molar refractivity (CMR) and molar volume (MV). The experimental lipophilicity parameters (log k’w), along with CMR and MV, are reported in Table 6 for 18 compounds achieving finite IC50s (<100 µM) in the Aβ aggregation assay.
The lipophilicity parameters were determined by an RP-HPLC technique. Methanol solutions of the investigated hydrazone compounds (0.5 mg/mL) were injected into an Agilent 1260 infinity HPLC system (Agilent Technologies Italia, Milan), equipped with a diode array detector (DAD), and a Phenomenex Kinetex C18 column (150 × 4.6 mm, 5 μ, Phenomenex Italy s.r.l., Castel Maggiore, BO, Italy), and eluted at different mobile phase compositions (0.05 increments of MeOH volume fraction in 10 mM ammonium formate buffer at pH 4.5, ranging ϕ between 0.85 and 0.30). All RP-HPLC measurements were carried out at 25 ± 1 °C, at a flow rate of 1.0 mL/min, and at 254 nm wavelength.
The logarithm of capacity factors (log k′ = log (tR − t0)/t0) of each compound at different mobile phase compositions have been calculated; tR represents the retention time of the solute and t0 is the column dead time, measured as the elution time of a KNO3 solution in MeOH. For each compound, the log k′ values increased linearly with decreasing MeOH volume fraction. Logarithms of capacity factors extrapolated to the 100% aqueous mobile phase (log k′w) were calculated from the linear regressions on at least five data points (r^2 > 0.975).

For data set [2], the target named is T1, Aβ40 peptide (Homo sapiens, UniProt P05067).
T1 construct: we preferred using Aβ40 peptide
T1 sequence (P05067 672-711 limits assumed): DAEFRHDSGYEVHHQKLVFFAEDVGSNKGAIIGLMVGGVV
The data set can be described thus: Inhibition of Aβ40 aggregation, ThT fluorescence-based method. Format: biochemical. The conditions noted are these: for fold less potent than compound 1 (Aβ40 aggregation): ratio of IC50s vs compound 1. On the procedure: In vitro inhibition of Aβ aggregation was assessed through a ThT fluorescence-based method, with the use of 2% 1,1,1,3,3,3-hexafluoroisopropanol (HFIP) as aggregation enhancer. In this medium-throughput assay, we preferred using Aβ40 peptide, being more manageable than Aβ42 and less prone to the formation of preaggregates. Samples of Aβ were co-incubated with test molecules in PBS at 100 µM concentration and the antiaggregating activities were measured after 2 h of incubation at 25 °C. For compounds showing >80% Aβ40 aggregation inhibition, IC50s were determined.
The spectrofluorimetric assays, measuring ThT fluorescence in the presence of Aβ, were done as previously described. Briefly, coincubation samples were prepared as described above (Section 2.2 and Section 2.3) in 96-well black, non-binding microplates (Greiner Bio-One GmbH, Frickenhausen, Germany). Fluorimetric reads were performed in a multiplate reader Infinite M1000 Pro (Tecan, Cernusco sul Naviglio, Italy). Each concentration point was run in triplicate. CD ellipticity measures were performed as detailed in ref. [20], following the increase of the negative band at 215 nm as indicative of β-sheet arrangement.

[3] abbreviates: Aβ40 aggregation inhibition, read-out: pIC50, Aβ antiaggregating potency (converted).

For `COc1ccc2c(c1)/C(=N/Nc1ccccn1)C(=O)N2` [Compound 7, (Z)-5-Methoxy-3-(2-(pyridin-2-yl)hydrazono)indolin-2-one], in data set [1], the “log k'w” value is reported as 2.34. The compound further came in with an IC50 in data set [2] of 90 ± 5 µM.

With `COc1ccc2c(c1)/C(=N\N=C/c1ccc(C(C)C)cc1)C(=O)N2` [Compound 21, (Z)-3-((E)-(4-Isopropylbenzylidene)hydrazono)-5-methoxyindolin-2-one], the “log k'w” value in data set [1] was 4.82. Besides, the IC50 in data set [2] (Aβ40, ThT fluorescence, 2% HFIP, PBS, 2 h at 25 °C, mean ± SEM of three independent experiments, read-out: IC50 (µM), Aβ antiaggregating activity) was found to be 6.7 ± 0.2 µM.

Regarding `COc1ccc2c(c1)/C(=N/Nc1nc(-c3cccc(Br)c3)cs1)C(=O)N2` [Compound 18, (Z)-3-(2-(4-(3-Bromophenyl)thiazol-2-yl)hydrazono)-5-methoxyindolin-2-one], in data set [1], the “log k'w” value is reported as 5.67. Moreover, in data set [2] (setting [3]), the IC50 was 39.8 µM.

Turning to `COc1ccc2c(c1)/C(=N/Nc1cccc3ccccc13)C(=O)N2` [Compound 8, (Z)-5-Methoxy-3-(2-(naphthalen-1-yl)hydrazono)indolin-2-one], in data set [1], the “log k'w” value is on record as 5.15. In addition, the IC50 in data set [2] (setting [3]) is 28.2 µM.

Consider `COc1ccc2c(c1)/C(=N/Nc1nc(-c3ccccc3)cs1)C(=O)N2` [Compound 15], for which the “log k'w” value in data set [1] is 5.10. In addition, in data set [2] (setting [3]), the IC50 was 1.2 µM.

Consider `COc1ccc2c(c1)/C(=N/Nc1nc(-c3cccc(O)c3)cs1)C(=O)N2` [Compound 16, (Z)-3-(2-(4-(3-Hydroxyphenyl)thiazol-2-yl)hydrazono)-5-methoxyindolin-2-one], for which the “log k'w” value in data set [1] was 4.58. Further, the IC50 in data set [2] (setting [3]) is 15.8 µM.

`COc1ccc2[nH]cc(/C=N/Nc3ccc(C(C)C)cc3)c2c1` [Compound 19]: the “log k'w” value in data set [1] is 6.42. In data set [2], the IC50 was determined as 41 ± 3 µM and the “fold less potent than compound 1 (Aβ40 aggregation)” value was found to be 100 fold.

Turning to `COc1ccc2c(c1)/C(=N/Nc1cc(C(F)(F)F)cc(C(F)(F)F)c1)C(=O)N2` [Compound 6, (Z)-3-(2-(3,5-bis(trifluoromethyl)phenyl)hydrazono)-5-methoxyindolin-2-one], in data set [1], the “log k'w” value is reported as 6.29. In data set [2], the IC50 is 9.9 ± 0.8 µM and the “fold less potent than compound 1 (Aβ40 aggregation)” value is 25 fold.

`COc1cccc(-c2csc(N/N=C3\C(=O)Nc4ccc(OC)cc43)n2)c1` [Compound 17, (Z)-5-Methoxy-3-(2-(4-(3-methoxyphenyl)thiazol-2-yl)hydrazono)indolin-2-one]: the “log k'w” value in data set [1] is on record as 5.29. Moreover, the IC50 in data set [2] (setting [3]) was 33.9 µM.

For the compound `COc1ccc2c(c1)/C(=N/N(C)c1ccc(C(C)C)cc1)C(=O)N2C` [Compound 24, (Z)-3-(2-(4-Isopropylphenyl)-2-methylhydrazono)-5-methoxy-1-methylindolin-2-one], the “log k'w” value in data set [1] is given as 4.23. For the same compound, in data set [2] (setting [3]), the IC50 was 11 µM. Further, the “fold decrease in inhibition potency compared with 26” value in data set [2] (vs non-methylated compound 26) is “more than 10 fold”.

On to `COc1ccc2c(c1)/C(=N/Nc1ccc(C(C)C)cc1)C(=O)N2C` [Compound 26, (Z)-3-(2-(4-Isopropylphenyl)hydrazono)-5-methoxy-1-methylindolin-2-one], for which the “log k'w” value in data set [1] is 5.96. The same compound yielded an IC50 in data set [2] of 0.81 ± 0.11 µM.

For `COc1ccc2c(c1)/C(=N/Nc1ccc(C(C)C)cc1)C(=O)N2Cc1ccccc1` [Compound 32, (Z)-1-Benzyl-3-(2-(4-isopropylphenyl)hydrazono)-5-methoxyindolin-2-one], the “log k'w” value in data set [1] is on record as 7.44. The compound further yielded an IC50 in data set [2] of 0.53 ± 0.1 µM.

With `COc1ccc2c(c1)/C(=N/Nc1ccc(C(C)C)cc1)C(=O)N2CCCc1ccccc1` [Compound 34, (Z)-3-(2-(4-Isopropylphenyl)hydrazono)-5-methoxy-1-(3-phenylpropyl)indolin-2-one], the “log k'w” value in data set [1] is 7.87. The compound also showed an IC50 in data set [2] of 0.83 ± 0.2 µM.

On to `COc1ccc2c(c1)/C(=N/Nc1ccc(C(C)C)cc1)C(=O)N2CCc1ccccc1` [Compound 33, (Z)-3-(2-(4-Isopropylphenyl)hydrazono)-5-methoxy-1-phenethylindolin-2-one], for which, in data set [1], the “log k'w” value is reported as 7.24. For the same compound, the IC50 in data set [2] was found to be 0.61 ± 0.03 µM.

For the compound `COc1ccc2c(c1)/C(=N/Nc1nc(CCl)cs1)C(=O)N2` [Compound 13, (Z)-3-(2-(4-(Chloromethyl)thiazol-2-yl)hydrazono)-5-methoxyindolin-2-one], the “log k'w” value in data set [1] is 3.95. In data set [2] (setting [3]), the IC50 is 12.9 µM.

As to `COc1ccc2c(c1)/C(=N\N=C/c1cccc(Cl)c1)C(=O)N2` [Compound 22, (Z)-3-((E)-(3-chlorobenzylidene)hydrazono)-5-methoxyindolin-2-one], the “log k'w” value in data set [1] is listed as 4.21. Also, the IC50 in data set [2] (setting [3]) was 11 µM.
